Reference: patent US20250313546A1, “NUCLEIC ACID BINDERS” (UNIVERSITY OF STRATHCLYDE, priority 2022, published 2025)
In brackets after ≈: the same amount, converted by molar mass.

How the values were obtained:
[1] = system: A. fumigatus A1160 (MFIG001); conditions: Aspergillus fumigatus, read-out: MIC99 A. fumigatus A1160
Fusarium oxysporum = experiment: Expanded set of filamentous fungi, MIC broth microdilution (CLSI); type: cell-based; conditions: MIC at 50% inhibition; for MIC50: Fusarium oxysporum, isolate F2; for MIC50 Fusarium oxysporum: isolate F3
C. albicans = experiment: Expanded set of yeasts, MIC broth microdilution (CLSI); type: cell-based; conditions: MIC at 50% inhibition; for MIC50: Candida albicans; for MIC50 C. albicans: isolate CA90028
[2] = system: PolyAU double stranded RNA; experiment: Fluorescence intercalator displacement (FID) assay, SYBR-safe probe; conditions: 20 μM compound, 30° C., lower % = stronger binding
Method in brief: (§1)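 Probe displacement was measured at 30 °C in 1 mM phosphate pH 7.4 containing SybrSafe (12500-fold dilution), 3.76 ng/mL nucleic acid (salmon dsDNA or polyAU dsRNA) and 20 μM compound. Fluorescence loss is normalised between probe-only and probe-plus-nucleic-acid controls.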

[3] = system: Genomic double stranded DNA (salmon); experiment: as above; conditions: 20 μM compound, 30° C., lower % = stronger binding
Method in brief: as §1

[4] = system: Enterococcus faecalis (ATCC 51299); experiment: Antibacterial MIC, broth microdilution (CLSI); type: cell-based; conditions: Enterococcus faecalis, ATCC51299; read-out: MIC80 E. faecalis
Aspergillus fumigatus = experiment: Expanded set of filamentous fungi, MIC broth microdilution (CLSI); type: cell-based
Scedosporium spp. = experiment: as above; type: cell-based
C. krusei = experiment: Expanded set of yeasts, MIC broth microdilution (CLSI); type: cell-based; conditions: Pichia kudriavzevii, ATCC6258; isolate ATCC 6258; MIC at 50% inhibition
C. auris = experiment: as above; type: cell-based; conditions: MIC at 50% inhibition; for MIC50: Candidozyma auris, isolate DI17-47
[5] = system: Scedosporium prolificans (F2746); conditions: Lomentospora prolificans, read-out: MIC99 Scedosporium prolificans
Description: (§2) The Minimum Inhibitory Concentration (MIC, at 99% inhibition) of the compounds was determined using the broth microdilution method as recommended by EUCAST (EUCAST Definitive Document E.DEF 9.3.2, Method for the determination of broth dilution minimum inhibitory concentrations of antifungal agents for conidia forming moulds and EUCAST Definitive Document E.DEF 7.3.2 Method for the determination of broth dilution minimum inhibitory concentrations of antifungal agents for yeasts).

[6] = system: Candida glabrata (ACPF3309); conditions: Nakaseomyces glabratus, read-out: MIC99 Candida glabrata
Description: as §2

C. glabrata = experiment: Expanded set of yeasts, MIC broth microdilution (CLSI); type: cell-based; conditions: Nakaseomyces glabratus, MIC at 50% inhibition
C. neoformans (F10025) = conditions: Cryptococcus neoformans, read-out: MIC99 C. neoformans
Description: as §2

[7] = system: Escherichia coli (ATCC 25922); experiment: Antibacterial MIC, broth microdilution (CLSI); type: cell-based; conditions: Escherichia coli, ATCC25922; read-out: MIC80 E. coli
[8] = system: Rhizopus arrhizus (NEQAS12.35321); conditions: read-out: MIC99 Rhizopus arrhizus
[9] = system: Staphylococcus aureus (ATCC 43300); experiment: Antibacterial MIC, broth microdilution (CLSI); type: cell-based; conditions: for S. aureus Selectivity Indices, Group: SI, IC50 (μM)/MIC80 (μM), HEK293 cytotoxicity, Alkyl Amidines and NH Pyrroles; for MIC80: Staphylococcus aureus, ATCC43300, read-out: MIC80 S. aureus
A. flavus (CBS 128.202) = conditions: Aspergillus flavus, CBS128, read-out: MIC99 A. flavus
Description: as §2

C. albicans (ATCC 90028) = conditions: Candida albicans, ATCC90028, read-out: MIC99 C. albicans
Aspergillus flavus = experiment: Expanded set of filamentous fungi, MIC broth microdilution (CLSI); type: cell-based; conditions: MIC at 50% inhibition; for MIC50: Aspergillus flavus; for MIC50 Aspergillus flavus: isolate Aflav3
Candida auris (H.17.157) = conditions: Candidozyma auris, read-out: MIC99 Candida auris
[10] = isolate AF293, MIC at 50% inhibition
[11] = isolate DI15-106, MIC at 50% inhibition
[12] = isolate DI15-116, MIC at 50% inhibition
[13] = isolate DI19-187, MIC at 50% inhibition
[14] = isolate DI19-230, MIC at 50% inhibition
[15] = isolate DI19-231, MIC at 50% inhibition
[16] = isolate DI19-232, MIC at 50% inhibition
[17] = isolate DI19-233, MIC at 50% inhibition
[18] = isolate DI19-234, MIC at 50% inhibition
[19] = isolate DI19-236, MIC at 50% inhibition
[20] = isolate DI19-237, MIC at 50% inhibition
[21] = isolate DI20-95, MIC at 50% inhibition
[22] = isolate DI20-103, MIC at 50% inhibition
[23] = isolate S1, MIC at 50% inhibition
[24] = isolate S3, MIC at 50% inhibition
[25] = ATCC204304, isolate ATCC 204304

## C/N=C(/CCNC(=O)c1cc(NC(=O)c2cc(NC(=O)c3ccc(/C=C/c4cnc5ccccc5c4)cc3)cn2C)cn1C)NC [Ia10, 1-methyl-4-(1-methyl-4-(4-((E)-2-(quinolin-3-yl)vinyl)benzamido)-1H-pyrrole-2-carboxamido)-N—((Z)-3-(methylamino)-3-(methylimino)propyl)-1H-pyrrole-2-carboxamide]
[1]
  MIC99: < 5 µg/mL
Fusarium oxysporum
  MIC50: ≤ 1 µg/mL
  MIC50 Fusarium oxysporum: *** (*** means MIC50 <= 1 μg/mL)
C. albicans; isolate CA3
  MIC50: 1 to 8 µg/mL (≈ 1.62 to 13 µM)
C. albicans; isolate SC5314
  MIC50: 1 to 8 µg/mL (≈ 1.62 to 13 µM)
C. albicans
  MIC50 C. albicans: ** (** means 1 μg/mL < MIC50 <= 8 μg/mL)
[2]
  % Normalised Fluorescence with polyAU RNA: 17%
[3]
  % Normalised Fluorescence with gDNA: 8%
[4]
  MIC80: < 5 µM
Aspergillus fumigatus; [10]
  MIC50: ≤ 1 µg/mL
Aspergillus fumigatus; [11]
  MIC50: ≤ 1 µg/mL
Aspergillus fumigatus; [12]
  MIC50: ≤ 1 µg/mL
Aspergillus fumigatus; [13]
  MIC50: ≤ 1 µg/mL
Aspergillus fumigatus; [14]
  MIC50: ≤ 1 µg/mL
Aspergillus fumigatus; [15]
  MIC50: 1 to 8 µg/mL (≈ 1.62 to 13 µM)
Aspergillus fumigatus; [16]
  MIC50: ≤ 1 µg/mL
Aspergillus fumigatus; [17]
  MIC50: ≤ 1 µg/mL
Aspergillus fumigatus; [18]
  MIC50: ≤ 1 µg/mL
Aspergillus fumigatus; [19]
  MIC50: ≤ 1 µg/mL
Aspergillus fumigatus; [20]
  MIC50: ≤ 1 µg/mL
Aspergillus fumigatus; [21]
  MIC50: ≤ 1 µg/mL
Aspergillus fumigatus; [22]
  MIC50: ≤ 1 µg/mL
Scedosporium spp.; [23]
  MIC50: ≤ 1 µg/mL
Scedosporium spp.; [24]
  MIC50: ≤ 1 µg/mL
C. krusei
  MIC50: ≤ 1 µg/mL
C. auris
  MIC50: 1 to 8 µg/mL (≈ 1.62 to 13 µM)
C. auris; isolate DI17-46
  MIC50 C. auris: ** (** means 1 μg/mL < MIC50 <= 8 μg/mL)
C. auris; isolate DI17-48
  MIC50 C. auris: ** (** means 1 μg/mL < MIC50 <= 8 μg/mL)
[5]
  MIC99: < 5 µg/mL
[6]
  MIC99: < 5 µg/mL
C. glabrata; isolate 05-62
  MIC50: ≤ 1 µg/mL
C. glabrata; isolate 05-761
  MIC50: ≤ 1 µg/mL
C. glabrata; isolate CG3
  MIC50: ≤ 1 µg/mL
C. neoformans (F10025)
  MIC99: < 5 µg/mL
[7]
  MIC80: > 100 µM
[8]
  MIC99: 5 to 25 µg/mL (≈ 8.11 to 40.5 µM)
[9]
  S. aureus Selectivity Indices, Group: B (Group B: 3 < SI <= 5)
  MIC80: < 5 µM
A. flavus (CBS 128.202)
  MIC99: < 5 µg/mL
C. albicans (ATCC 90028)
  MIC99: 5 to 25 µg/mL (≈ 8.11 to 40.5 µM)
Aspergillus flavus; [25]
  MIC50: ≤ 1 µg/mL
Aspergillus flavus; isolate Aflav2
  MIC50: ≤ 1 µg/mL
Aspergillus flavus
  MIC50 Aspergillus flavus: *** (*** means MIC50 <= 1 μg/mL)
Candida auris (H.17.157)
  MIC99: 5 to 25 µg/mL (≈ 8.11 to 40.5 µM)

## [H]/N=C(\CCNC(=O)c1cc(NC(=O)c2cc(NC(=O)c3ccc(C=Cc4ccc(N(C)C)cc4)nc3)cn2C)cn1C)NC [Ia9, (E)-6-(4-(dimethylamino)styryl)-N-(5-((5-((3-imino-3-(methylamino)propyl)carbamoyl)-1-methyl-1H-pyrrol-3-yl)carbamoyl)-1-methyl-1H-pyrrol-3-yl)nicotinamide]
[1]
  MIC99: 5 to 25 µg/mL (≈ 8.39 to 42 µM)
Fusarium oxysporum
  MIC50: ≤ 1 µg/mL
  MIC50 Fusarium oxysporum: *** (*** means MIC50 <= 1 μg/mL)
C. albicans; isolate CA3
  MIC50: 1 to 8 µg/mL (≈ 1.68 to 13.4 µM)
C. albicans; isolate SC5314
  MIC50: 1 to 8 µg/mL (≈ 1.68 to 13.4 µM)
C. albicans
  MIC50 C. albicans: ** (** means 1 μg/mL < MIC50 <= 8 μg/mL)
[2]
  % Normalised Fluorescence with polyAU RNA: 19%
[3]
  % Normalised Fluorescence with gDNA: 13%
[4]
  MIC80: 25 to 100 µM (≈ 14.9 to 59.6 µg/mL)
Aspergillus fumigatus; [10]
  MIC50: 1 to 8 µg/mL (≈ 1.68 to 13.4 µM)
Aspergillus fumigatus; [11]
  MIC50: 1 to 8 µg/mL (≈ 1.68 to 13.4 µM)
Aspergillus fumigatus; [12]
  MIC50: 1 to 8 µg/mL (≈ 1.68 to 13.4 µM)
Aspergillus fumigatus; [13]
  MIC50: 1 to 8 µg/mL (≈ 1.68 to 13.4 µM)
Aspergillus fumigatus; [14]
  MIC50: 1 to 8 µg/mL (≈ 1.68 to 13.4 µM)
Aspergillus fumigatus; [15]
  MIC50: 1 to 8 µg/mL (≈ 1.68 to 13.4 µM)
Aspergillus fumigatus; [16]
  MIC50: 1 to 8 µg/mL (≈ 1.68 to 13.4 µM)
Aspergillus fumigatus; [17]
  MIC50: 1 to 8 µg/mL (≈ 1.68 to 13.4 µM)
Aspergillus fumigatus; [18]
  MIC50: 1 to 8 µg/mL (≈ 1.68 to 13.4 µM)
Aspergillus fumigatus; [19]
  MIC50: 1 to 8 µg/mL (≈ 1.68 to 13.4 µM)
Aspergillus fumigatus; [20]
  MIC50: 1 to 8 µg/mL (≈ 1.68 to 13.4 µM)
Aspergillus fumigatus; [21]
  MIC50: 1 to 8 µg/mL (≈ 1.68 to 13.4 µM)
Aspergillus fumigatus; [22]
  MIC50: 1 to 8 µg/mL (≈ 1.68 to 13.4 µM)
Scedosporium spp.; [23]
  MIC50: 1 to 8 µg/mL (≈ 1.68 to 13.4 µM)
Scedosporium spp.; [24]
  MIC50: ≤ 1 µg/mL
C. krusei
  MIC50: 1 to 8 µg/mL (≈ 1.68 to 13.4 µM)
C. auris
  MIC50: 1 to 8 µg/mL (≈ 1.68 to 13.4 µM)
C. auris; isolate DI17-46
  MIC50 C. auris: ** (** means 1 μg/mL < MIC50 <= 8 μg/mL)
C. auris; isolate DI17-48
  MIC50 C. auris: ** (** means 1 μg/mL < MIC50 <= 8 μg/mL)
[5]
  MIC99: 5 to 25 µg/mL (≈ 8.39 to 42 µM)
[6]
  MIC99: 5 to 25 µg/mL (≈ 8.39 to 42 µM)
C. glabrata; isolate 05-62
  MIC50: 1 to 8 µg/mL (≈ 1.68 to 13.4 µM)
C. glabrata; isolate 05-761
  MIC50: ≤ 1 µg/mL
C. glabrata; isolate CG3
  MIC50: 1 to 8 µg/mL (≈ 1.68 to 13.4 µM)
C. neoformans (F10025)
  MIC99: < 5 µg/mL
[7]
  MIC80: > 100 µM
[8]
  MIC99: 5 to 25 µg/mL (≈ 8.39 to 42 µM)
[9]
  S. aureus Selectivity Indices, Group: C (Group C: 5 < SI <= 10)
  MIC80: 5 to 25 µM (≈ 2.98 to 14.9 µg/mL)
A. flavus (CBS 128.202)
  MIC99: 5 to 25 µg/mL (≈ 8.39 to 42 µM)
C. albicans (ATCC 90028)
  MIC99: 5 to 25 µg/mL (≈ 8.39 to 42 µM)
Aspergillus flavus; [25]
  MIC50: 1 to 8 µg/mL (≈ 1.68 to 13.4 µM)
Aspergillus flavus; isolate Aflav2
  MIC50: 1 to 8 µg/mL (≈ 1.68 to 13.4 µM)
Aspergillus flavus
  MIC50 Aspergillus flavus: ** (** means 1 μg/mL < MIC50 <= 8 μg/mL)
Candida auris (H.17.157)
  MIC99: > 50 µg/mL
